Source: article PMC11079064, “Discovery of a brain penetrant small molecule antagonist targeting LPA1 receptors to reduce neuroinflammation and promote remyelination in multiple sclerosis” (Scientific Reports, 2024)
“Also recorded” adds a separate entry of the source. Read-outs that look alike come from different tables or passages of the source.

Legend:
[1] = tested on: microglia; experiment: LPA-induced microglial activation in hippocampal slices; assay type: cell-based, mouse; details: 3 µM, 10 µM LPA
Description: Microglial activation was then triggered by the addition of 10 µM LPA, slices incubated for 3 additional hours, then fixed. Slices were immunostained against IBA1 and microglial perimeters were measured as a mean of differentiating between ramified/resting versus rounded/activated microglia.
Brains were harvested from mice (postnatal day 20, Charles River). […] 400 µm thick coronal slices were cut on a McIlwain tissue chopper and returned to dissection media and separated manually. […] Slices were incubated for 2 h at 37 °C (4 slices per condition). Microglial activation was initiated by adding LPA (18:1, Avanti Polar Lipids) to a final concentration of 10 µM and incubated for 3 h. Slices were then fixed in formalin and for 2 h.
For immunohistochemistry, slices were washed for 3 × 15 min in 0.5% Triton-X100 and DPBS. Slices were then stained using IBA-1 antibody (Thermo Scientific) in 10% normal goat serum with 0.5% Triton-X100 in DPBS overnight on a rocker. Slices were then washed in 0.5% Triton-X100 in DPBS 3 × 15 min. Goat anti-mouse Alexa 564 (1:500, Invitrogen, Carlsbad, CA) and […] (Invitrogen, Carlsbad, CA) were diluted in DPBS with 0.5% Triton-X100 and incubated for 2h. Slices were washed 3 × 15 min in DPBS with 0.5% Triton-X100, mounted with Fluoromount and imaged on a Nikon A1R confocal microscope.

[2] = tested on: rat OPCs; experiment: OPC differentiation assay (PDGF withdrawal, MBP+ oligodendrocytes); assay type: cell-based; details: PDGF removed, 3 days treatment, percent of T3 induced differentiation; read-out: EC50 of increase in differentiated MBP+ oligodendrocytes
Description: Given the expression of Lpar1 on OPCs, we wanted to know how direct, exogenous application of LPA would affect OPC differentiation. Using the same PDGF withdrawal paradigm to induce OPC differentiation, we added various concentrations of LPA to the culture media and quantified MBP^+ oligodendrocytes 3 days later.
Primary rat OPCs were isolated and cultured in the presence of PDGF. One day later, PDGF was removed and various doses of PIPE-791 were added to the cultures. These cultures were fixed 3 days post-PIPE-791 treatment and immunostained for MBP.
OPC isolation: For immunopanning purification of OPCs, cortical hemispheres were dissected from postnatal day 8 Sprague–Dawley rat pups. Tissue culture dishes were incubated overnight with goat IgG secondary antibodies to mouse (Jackson Laboratories, Bar Harbor, ME). Dishes were rinsed and incubated at room temperature with primary antibodies for Ran-2, GalC and O4 (gift from Jonah Chan lab). Rodent cortical hemispheres were minced and dissociated with papain (Thermo Fisher, Waltham, MA) for 1 h at 37°. After dissociation, cells were resuspended in a panning buffer (0.2% BSA in DPBS) and incubated at room temperature sequentially on three immunopanning dishes: Ran-2 and GalC were used for negative selection before positive selection with O4. […]

[3] = tested on: off-target panel (SAFETYscan E/IC50 ELECT); experiment: Eurofins off-target panel (SAFETYscan E/IC50 ELECT); details: test concentration 30 µM
Source text: Supplemental Figure 1. Results from Eurofins SAFETYscan E/IC50 ELECT.

[4] = molecular target: T1, LPA1 (Mus musculus, UniProt P61793); experiment: In vivo brain binding of [3H]-OPC3497 radioligand; details: PIPE-791 dosed orally 2 h prior; 5 and 30 minutes after radioligand
T1 construct: from tissue; host or cells: mouse brain (homogenate; forebrain of dosed C57BL6/N mice in the in vivo studies)
T1 sequence (P61793 whole entry): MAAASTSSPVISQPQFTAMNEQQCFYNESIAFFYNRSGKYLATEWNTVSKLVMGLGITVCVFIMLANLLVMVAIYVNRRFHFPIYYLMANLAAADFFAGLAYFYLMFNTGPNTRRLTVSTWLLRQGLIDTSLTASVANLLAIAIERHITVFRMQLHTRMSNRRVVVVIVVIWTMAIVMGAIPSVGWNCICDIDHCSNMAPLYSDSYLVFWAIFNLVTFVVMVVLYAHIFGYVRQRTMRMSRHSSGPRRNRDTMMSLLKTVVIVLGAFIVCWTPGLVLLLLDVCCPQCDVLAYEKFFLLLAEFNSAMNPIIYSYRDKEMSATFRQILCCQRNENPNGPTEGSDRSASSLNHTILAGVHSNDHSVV
Description: Supplemental Figure 3. OPC3497 is a suitable radioligand for evaluating LPA1 receptor occupancy. Following IV administration, [^3H]-OPC3497 binding in mouse brain increased rapidly, peaked 5 minutes post-dose and declined sharply over the evaluation period (2 h).

[5] = tested on: mouse cortical brain slices; experiment: Lysolecithin-treated mouse organotypic slice culture, MBP and Caspr immunostaining; assay type: cell-based; details: then 5 days treatment
Description: Slices were also evaluated using a histological endpoint. […] Caspr clustering was used as a marker for nodes of Ranvier formation which implicates the presence of functional axons that have responded to myelination[39],[40].
Immunohistological evaluation of MBP and Caspr in mouse brain slice culture: Brain slices were cultured as described above. After compound treatment, slices were fixed in 4% PFA for 30 m, blocked in 10% donkey serum, 0.2% Triton X-100, followed by overnight incubation in primary antibodies in blocking solution. Antibodies used were MBP (rat, 1:500, Millipore, Temecula, CA), Caspr (rabbit 1:250 Abcam, Fremont, CA) Tuj1 (mouse, 1:500, Biolegend, San Diego, CA). Slices were washed with 3 × 15 m PBS followed by incubation with secondary antibodies (anti-rat, Alexa488; anti-rabbit, Alexa568, anti-mouse, Alexa647, Hoechst counterstain) in blocking buffer. All secondary antibodies were produced in donkey (Invitrogen, Carlsbad, CA, Carlsbad, CA) and used at 1:250. Filters were excised from insert, mounted with Fluoromount (Millipore Sigma, St. Louis) on a microscope slide and coverslipped. […] Image analysis was performed using ImageJ. MBP was expressed as MBP surface area normalized to Hoechst cell count; Caspr was expressed as the number of Caspr puncta normalized to Tuj1 intensity.

- EC50 [2]: 108 nM
- effect on total [3H]-OPC3497 binding in brain [4]: significantly reduced
- EC50 ([5]; read-out: EC50 of MBP+ area increase): 74 nM
- EC50 ([5]; read-out: EC50 of increase in number of Caspr puncta): 17.9 nM
Compound: COc1ccc(NC(=O)N(c2ccccc2C(C)C)C2CCC(C(=O)O)CC2)c(OC(F)F)n1 (stereo not drawn) [PIPE-791]
- effect on LPA-induced decrease in microglial perimeter length [1]: inhibited; also recorded: prevented
- off-target activities [3]: no appreciable activities
